From US4840954A, “6,7-disubstituted 1-cycloproply-1,4-dihydro-4-oxo-1,8-naphthyridine-3-carboxylic acids” (Bayer Aktiengesellschaft, priority 1985, dated 1989)
≈ marks a conversion by molar mass, not a printed value.

What was measured:
Assay type in all cases: cell-based
Pseudomonas W. = test: MIC, agar dilution test, Pseudomonas W.; conditions: agar dilution test / Isosensitest medium
Excerpt: (§1) As a comparison, the corresponding MIC values of 1-ethyl-6-fluoro-1,4-dihydro-4-oxo-7-(1-piperazinyl)-1,8-naphthyridine-3-carboxylic acid (AT 2266, enoxacin), which is known from European Patent Application 9,425, Japanese Patent Applications 81/45473 [C.A. 95, 115 597 (1981)] and 81/46811 [C.A. 95, 121 142 (1981)], from J. Med. Chem. 27, 292 (1984) or from J. Heterocycl.
(§2) Agar dilution test / Isosensitest medium

Proteus morg. 11006 = test: MIC, agar dilution test, Proteus morg. 11006; conditions: agar dilution test / Isosensitest medium
Excerpt: as §1, §2

Serratia 16040 = test: MIC, agar dilution test, Serratia 16040; conditions: agar dilution test / Isosensitest medium
Excerpt: as §1, §2

Proteus mir. 8175 = test: MIC, agar dilution test, Proteus mir. 8175; conditions: agar dilution test / Isosensitest medium
Excerpt: as §1, §2

Proteus vulg. 1017 = test: MIC, agar dilution test, Proteus vulg. 1017; conditions: agar dilution test / Isosensitest medium
Excerpt: as §1, §2

E.Coli 455/7 = test: MIC, agar dilution test, E.Coli 455/7; conditions: Escherichia coli, agar dilution test / Isosensitest medium
Excerpt: as §1, §2

Staphyloc. 133 = test: MIC, agar dilution test, Staphyloc. 133; conditions: agar dilution test / Isosensitest medium
Excerpt: as §1, §2

Staphyloc. 1756 = test: MIC, agar dilution test, Staphyloc. 1756; conditions: agar dilution test / Isosensitest medium
Excerpt: as §1, §2

E.coli 4418 = test: MIC, agar dilution test, E.coli 4418; conditions: Escherichia coli, agar dilution test / Isosensitest medium
Excerpt: as §1, §2

Klebsiella 63 = test: MIC, agar dilution test, Klebsiella 63; conditions: agar dilution test / Isosensitest medium
Excerpt: as §1, §2

Klebsiella 6179 = test: MIC, agar dilution test, Klebsiella 6179; conditions: agar dilution test / Isosensitest medium
Excerpt: as §1, §2

Providencia 12012 = test: MIC, agar dilution test, Providencia 12012; conditions: agar dilution test / Isosensitest medium
Excerpt: as §1, §2

E.coli Neum. = test: MIC, agar dilution test, E.coli Neum.; conditions: Escherichia coli, agar dilution test / Isosensitest medium
Excerpt: as §1, §2

Compound	MIC (Pseudomonas W.) [µg/mL]	MIC (Proteus morg. 11006) [µg/mL]	MIC (Serratia 16040) [µg/mL]	MIC (Proteus mir. 8175) [µg/mL]	MIC (Proteus vulg. 1017) [µg/mL]	MIC (E.Coli 455/7) [µg/mL]	MIC (Staphyloc. 133) [µg/mL]	MIC (Staphyloc. 1756) [µg/mL]	MIC (E.coli 4418) [µg/mL]	MIC (Klebsiella 63) [µg/mL]	MIC (Klebsiella 6179) [µg/mL]	MIC (Providencia 12012) [µg/mL]	MIC (E.coli Neum.) [µg/mL]
CCn1cc(C(=O)O)c(=O)c2cc(F)c(N3CCNCC3)nc21 [Enoxacin, 1-ethyl-6-fluoro-1,4-dihydro-4-oxo-7-(1-piperazinyl)-1,8-naphthyridine-3-carboxylic acid, reference compound]	2 (≈ 6.24 µM)	0.125 (≈ 0.39 µM)	32 (≈ 99.9 µM)	0.25 (≈ 0.78 µM)	0.125 (≈ 0.39 µM)	16 (≈ 49.9 µM)	1 (≈ 3.12 µM)	1 (≈ 3.12 µM)	0.25 (≈ 0.78 µM)	0.5 (≈ 1.56 µM)	2 (≈ 6.24 µM)	0.25 (≈ 0.78 µM)	0.06 (≈ 0.187 µM)
O=C(O)c1cn(C2CC2)c2nc(N3CCNCC3)c(F)cc2c1=O [Example 1, 1-Cyclopropyl-6-fluoro-1,4-dihydro-4-oxo-7-(1-piperazinyl)-1,8-naphthyridine-3-carboxylic acid]	0.125 (≈ 0.376 µM)	0.06 (≈ 0.181 µM)	8 (≈ 24.1 µM)	0.125 (≈ 0.376 µM)	0.06 (≈ 0.181 µM)	4 (≈ 12 µM)	0.5 (≈ 1.5 µM)	0.5 (≈ 1.5 µM)	0.03 (≈ 0.0903 µM)	0.03 (≈ 0.0903 µM)	0.125 (≈ 0.376 µM)	0.03 (≈ 0.0903 µM)	≤ 0.015
CC1CN(c2nc3c(cc2F)c(=O)c(C(=O)O)cn3C2CC2)CCN1 (stereo not shown) [Example 2, 1-Cyclopropyl-6-fluoro-1,4-dihydro-7-(3-methyl-1-piperazinyl)-4-oxo-1,8-naphthyridine-3-carboxlyic acid]	1 (≈ 2.89 µM)	0.03 (≈ 0.0866 µM)	8 (≈ 23.1 µM)	0.25 (≈ 0.722 µM)	0.125 (≈ 0.361 µM)	8 (≈ 23.1 µM)	0.5 (≈ 1.44 µM)	0.5 (≈ 1.44 µM)	0.03 (≈ 0.0866 µM)	≤ 0.015	0.125 (≈ 0.361 µM)	0.125 (≈ 0.361 µM)	≤ 0.015
CN1CCN(c2nc3c(cc2F)c(=O)c(C(=O)O)cn3C2CC2)CC1.Cl [Example 3, 1-Cyclopropyl-6-fluoro-1,4-dihydro-7-(4-methyl-1-piperazinyl)-4-oxo-1,8-naphthyridine-3-carboxylic acid hydrochloride]	1	0.06	8	0.25	0.125	8	0.5	0.5	0.06	≤ 0.015	0.03	0.06	≤ 0.015
